Measurements: ChEMBL document CHEMBL1141341, “Minor sesquiterpene lactones from Centaurea pullata and their antimicrobial activity” (2007)
In brackets after ≈: the same amount, converted by molar mass.

Key:
Trichoderma viride = assay: Antifungal activity against Trichoderma viride IAM 5061 by microdilution technique; type: functional
Salmonella enteritidis = assay: Antibacterial activity against Salmonella enteritidis by microdilution technique; type: functional, Salmonella enterica subsp. enterica serovar Enteritidis; conditions: Salmonella enterica
Penicillium ochrochloron = assay: Antifungal activity against Penicillium ochrochloron ATCC 9112 by microdilution technique; type: functional
Pseudomonas tolaasii = assay: Antibacterial activity against Pseudomonas tolaasii by microdilution technique; type: functional
Talaromyces funiculosus = assay: Antifungal activity against Penicillium funiculosum ATCC 36839 by microdilution technique; type: functional
Micrococcus luteus = assay: Antibacterial activity against Micrococcus flavus ATCC 10240 by microdilution technique; type: functional
Aspergillus flavus = assay: Antifungal activity against Aspergillus flavus ATCC 9643 by microdilution technique; type: functional
[1] = system: Staphylococcus epidermidis; assay: Antibacterial activity against Staphylococcus epidermidis ATCC 12228 by microdilution technique; type: functional
Escherichia coli = assay: Antibacterial activity against Escherichia coli ATCC 35210 by microdilution technique; type: functional
Aspergillus ochraceus = assay: Antifungal activity against Aspergillus ochraceus ATCC 12066 by microdilution technique; type: functional
Fusarium tricinctum = assay: Antifungal activity against Fusarium tricinctum CBS 514478 by microdilution technique; type: functional
Alternaria alternata = assay: Antifungal activity against Alternaria alternata DSM 2006 by microdilution technique; type: functional
Bacillus subtilis = assay: Antibacterial activity against Bacillus subtilis ATCC 10907 by microdilution technique; type: functional
Aspergillus niger = assay: Antifungal activity against Aspergillus niger ATCC 6275 by microdilution technique; type: functional

Row | SMILES | MFC (Trichoderma viride) [µg/mL] | MIC (Trichoderma viride) [µg/mL] | MBC (Salmonella enteritidis) [µg/mL] | MIC (Salmonella enteritidis) [µg/mL] | MFC (Penicillium ochrochloron) [µg/mL] | MIC (Penicillium ochrochloron) [µg/mL] | MBC (Pseudomonas tolaasii) [µg/mL] | MIC (Pseudomonas tolaasii) [µg/mL] | MFC (Talaromyces funiculosus) [µg/mL] | MIC (Talaromyces funiculosus) [µg/mL] | MBC (Micrococcus luteus) [µg/mL] | MIC (Micrococcus luteus) [µg/mL] | MFC (Aspergillus flavus) [µg/mL] | MIC (Aspergillus flavus) [µg/mL] | MBC [1] [µg/mL] | MIC [1] [µg/mL] | MBC (Escherichia coli) [µg/mL] | MIC (Escherichia coli) [µg/mL] | MFC (Aspergillus ochraceus) [µg/mL] | MIC (Aspergillus ochraceus) [µg/mL] | other results
1 | C=C(C(=O)O[C@H]1C/C(C)=C/CC/C(CO)=C/[C@H]2OC(=O)[C@H](C)[C@H]12)C(O)CO (stereo partly drawn) | 0.3 (≈ 0.789 µM) | 0.2 (≈ 0.526 µM) | 0.3 (≈ 0.789 µM) | 0.3 (≈ 0.789 µM) | 0.2 (≈ 0.526 µM) | 0.1 (≈ 0.263 µM) | 0.3 (≈ 0.789 µM) | 0.2 (≈ 0.526 µM) | 0.3 (≈ 0.789 µM) | 0.2 (≈ 0.526 µM) | 0.3 (≈ 0.789 µM) | 0.2 (≈ 0.526 µM) | 0.2 (≈ 0.526 µM) | 0.1 (≈ 0.263 µM) | 0.4 (≈ 1.05 µM) | 0.4 (≈ 1.05 µM) | 0.3 (≈ 0.789 µM) | 0.2 (≈ 0.526 µM) | 0.2 (≈ 0.526 µM) | 0.1 (≈ 0.263 µM) | MFC (Fusarium tricinctum): 0.2 µg/mL (≈ 0.526 µM); MIC (Fusarium tricinctum): 0.1 µg/mL (≈ 0.263 µM); MFC (Alternaria alternata): 0.2 µg/mL (≈ 0.526 µM); MIC (Alternaria alternata): 0.1 µg/mL (≈ 0.263 µM); MBC (Bacillus subtilis): 0.2 µg/mL (≈ 0.526 µM); MIC (Bacillus subtilis): 0.2 µg/mL (≈ 0.526 µM); MFC (Aspergillus niger): 0.3 µg/mL (≈ 0.789 µM); MIC (Aspergillus niger): 0.2 µg/mL (≈ 0.526 µM)
2 | CC(=O)OC/C=C(/CO)C(=O)O[C@H]1C/C(C)=C/CC/C(CO)=C/[C@H]2OC(=O)[C@H](C)[C@H]12 | 0.3 (≈ 0.71 µM) | 0.2 (≈ 0.473 µM) | 0.3 (≈ 0.71 µM) | 0.3 (≈ 0.71 µM) | 0.2 (≈ 0.473 µM) | 0.1 (≈ 0.237 µM) | 0.3 (≈ 0.71 µM) | 0.2 (≈ 0.473 µM) | 0.3 (≈ 0.71 µM) | 0.2 (≈ 0.473 µM) | 0.3 (≈ 0.71 µM) | 0.2 (≈ 0.473 µM) | 0.2 (≈ 0.473 µM) | 0.2 (≈ 0.473 µM) | 0.5 (≈ 1.18 µM) | 0.4 (≈ 0.947 µM) | 0.3 (≈ 0.71 µM) | 0.3 (≈ 0.71 µM) | 0.2 (≈ 0.473 µM) | 0.1 (≈ 0.237 µM) | MFC (Fusarium tricinctum): 0.3 µg/mL (≈ 0.71 µM); MIC (Fusarium tricinctum): 0.2 µg/mL (≈ 0.473 µM); MFC (Alternaria alternata): 0.3 µg/mL (≈ 0.71 µM); MIC (Alternaria alternata): 0.2 µg/mL (≈ 0.473 µM); MBC (Bacillus subtilis): 0.3 µg/mL (≈ 0.71 µM); MIC (Bacillus subtilis): 0.2 µg/mL (≈ 0.473 µM); MFC (Aspergillus niger): 0.3 µg/mL (≈ 0.71 µM); MIC (Aspergillus niger): 0.2 µg/mL (≈ 0.473 µM)
3 | C=C(CCO)C(=O)O[C@H]1C[C@]2(C)C([C@H](C=O)CC[C@H]2O)[C@H]2OC(=O)[C@H](C)[C@H]12 (stereo partly drawn) | 0.4 (≈ 1.05 µM) | 0.3 (≈ 0.789 µM) | 0.4 (≈ 1.05 µM) | 0.4 (≈ 1.05 µM) | 0.4 (≈ 1.05 µM) | 0.3 (≈ 0.789 µM) | 0.5 (≈ 1.31 µM) | 0.4 (≈ 1.05 µM) | 0.4 (≈ 1.05 µM) | 0.3 (≈ 0.789 µM) | 0.3 (≈ 0.789 µM) | 0.2 (≈ 0.526 µM) | 0.3 (≈ 0.789 µM) | 0.2 (≈ 0.526 µM) | 0.5 (≈ 1.31 µM) | 0.4 (≈ 1.05 µM) | 0.4 (≈ 1.05 µM) | 0.4 (≈ 1.05 µM) | 0.3 (≈ 0.789 µM) | 0.2 (≈ 0.526 µM) | MFC (Fusarium tricinctum): 0.3 µg/mL (≈ 0.789 µM); MIC (Fusarium tricinctum): 0.2 µg/mL (≈ 0.526 µM); MFC (Alternaria alternata): 0.3 µg/mL (≈ 0.789 µM); MIC (Alternaria alternata): 0.2 µg/mL (≈ 0.526 µM); MBC (Bacillus subtilis): 0.3 µg/mL (≈ 0.789 µM); MIC (Bacillus subtilis): 0.2 µg/mL (≈ 0.526 µM); MFC (Aspergillus niger): 0.3 µg/mL (≈ 0.789 µM); MIC (Aspergillus niger): 0.2 µg/mL (≈ 0.526 µM)
4 | C=C(CCO)C(=O)O[C@H]1C/C(C)=C/CC/C(CO)=C/[C@H]2OC(=O)[C@H](C)[C@H]12 | 0.3 (≈ 0.823 µM) | 0.2 (≈ 0.549 µM) | 0.3 (≈ 0.823 µM) | 0.3 (≈ 0.823 µM) | 0.2 (≈ 0.549 µM) | 0.1 (≈ 0.274 µM) | 0.3 (≈ 0.823 µM) | 0.3 (≈ 0.823 µM) | 0.3 (≈ 0.823 µM) | 0.2 (≈ 0.549 µM) | 0.3 (≈ 0.823 µM) | 0.2 (≈ 0.549 µM) | 0.2 (≈ 0.549 µM) | 0.1 (≈ 0.274 µM) | 0.4 (≈ 1.1 µM) | 0.4 (≈ 1.1 µM) | 0.2 (≈ 0.549 µM) | 0.2 (≈ 0.549 µM) | 0.2 (≈ 0.549 µM) | 0.1 (≈ 0.274 µM) | MFC (Fusarium tricinctum): 0.3 µg/mL (≈ 0.823 µM); MIC (Fusarium tricinctum): 0.2 µg/mL (≈ 0.549 µM); MFC (Alternaria alternata): 0.3 µg/mL (≈ 0.823 µM); MIC (Alternaria alternata): 0.2 µg/mL (≈ 0.549 µM); MBC (Bacillus subtilis): 0.2 µg/mL (≈ 0.549 µM); MIC (Bacillus subtilis): 0.2 µg/mL (≈ 0.549 µM); MFC (Aspergillus niger): 0.3 µg/mL (≈ 0.823 µM); MIC (Aspergillus niger): 0.2 µg/mL (≈ 0.549 µM)
5 | C=C(CCO)C(=O)O[C@H]1C[C@]2(C)C([C@H]3OC(=O)[C@H](C)[C@H]13)[C@@H](C=O)CC[C@H]2O (stereo partly drawn) | 0.5 (≈ 1.31 µM) | 0.4 (≈ 1.05 µM) | 0.4 (≈ 1.05 µM) | 0.4 (≈ 1.05 µM) | 0.4 (≈ 1.05 µM) | 0.3 (≈ 0.789 µM) | 0.3 (≈ 0.789 µM) | 0.2 (≈ 0.526 µM) | 0.4 (≈ 1.05 µM) | 0.3 (≈ 0.789 µM) | 0.3 (≈ 0.789 µM) | 0.2 (≈ 0.526 µM) | 0.3 (≈ 0.789 µM) | 0.2 (≈ 0.526 µM) | 0.5 (≈ 1.31 µM) | 0.4 (≈ 1.05 µM) | 0.4 (≈ 1.05 µM) | 0.4 (≈ 1.05 µM) | 0.3 (≈ 0.789 µM) | 0.2 (≈ 0.526 µM) | MFC (Fusarium tricinctum): 0.3 µg/mL (≈ 0.789 µM); MIC (Fusarium tricinctum): 0.2 µg/mL (≈ 0.526 µM); MFC (Alternaria alternata): 0.3 µg/mL (≈ 0.789 µM); MIC (Alternaria alternata): 0.2 µg/mL (≈ 0.526 µM); MBC (Bacillus subtilis): 0.3 µg/mL (≈ 0.789 µM); MIC (Bacillus subtilis): 0.2 µg/mL (≈ 0.526 µM); MFC (Aspergillus niger): 0.3 µg/mL (≈ 0.789 µM); MIC (Aspergillus niger): 0.2 µg/mL (≈ 0.526 µM)
6 | CN[C@@H]1[C@H](O[C@H]2[C@H](O[C@H]3[C@H](O)[C@@H](O)[C@H](N=C(N)N)[C@@H](O)[C@@H]3N=C(N)N)O[C@@H](C)[C@]2(O)C=O)O[C@@H](CO)[C@H](O)[C@H]1O (stereo in doubt) [STREPTOMYCIN] | – | – | 1 (≈ 1.72 µM) | 1 (≈ 1.72 µM) | – | – | 2 (≈ 3.44 µM) | 1 (≈ 1.72 µM) | – | – | 1 (≈ 1.72 µM) | 0.5 (≈ 0.86 µM) | – | – | 1 (≈ 1.72 µM) | 1 (≈ 1.72 µM) | 1 (≈ 1.72 µM) | 0.5 (≈ 0.86 µM) | – | – | MBC (Bacillus subtilis): 0.5 µg/mL (≈ 0.86 µM); MIC (Bacillus subtilis): 0.5 µg/mL (≈ 0.86 µM)
7 | Clc1ccc(COC(Cn2ccnc2)c2ccc(Cl)cc2Cl)c(Cl)c1 (stereo not drawn) [MICONAZOLE] | 2 (≈ 4.81 µM) | 2 (≈ 4.81 µM) | – | – | 5 (≈ 12 µM) | 2 (≈ 4.81 µM) | – | – | 5 (≈ 12 µM) | 2 (≈ 4.81 µM) | – | – | 2 (≈ 4.81 µM) | 0.5 (≈ 1.2 µM) | – | – | – | – | 4 (≈ 9.61 µM) | 1.5 (≈ 3.6 µM) | MFC (Fusarium tricinctum): 1 µg/mL (≈ 2.4 µM); MIC (Fusarium tricinctum): 0.2 µg/mL (≈ 0.481 µM); MFC (Alternaria alternata): 1 µg/mL (≈ 2.4 µM); MIC (Alternaria alternata): 0.2 µg/mL (≈ 0.481 µM); MFC (Aspergillus niger): 4 µg/mL (≈ 9.61 µM); MIC (Aspergillus niger): 1.5 µg/mL (≈ 3.6 µM)
